The NIST ThermoML archive (doi:10.1021/je0601098)

Key:
[1] = 298.15 K, 101 kPa, Liquid; for speed of sound: Linear variable-path acoustic interferometer
[2] = mn = molality of the nth substance listed, in mol/kg; settings: 298.15 K, 101 kPa, Liquid; for speed of sound: Linear variable-path acoustic interferometer

C1COCCO1 [1,4-dioxane]
[1]
Settings	mass density [kg/m3]	speed of sound [m/s]
–	1028.34	1346.3

C1COCCO1 [1,4-dioxane] + O
[2]
Settings	mass density [kg/m3]	speed of sound [m/s]
m2 = 0	1028.34	1346.3
m2 = 0.07165	1028.35	1347.1
m2 = 0.1214	1028.36	1347.8
m2 = 0.1625	1028.37	1348.4
m2 = 0.2272	1028.39	1349.2
m2 = 0.3262	1028.42	1350
m2 = 0.4214	1028.46	1350.9
m2 = 0.6512	1028.57	1353
m2 = 0.8375	1028.67	1354.8
m2 = 1.022	1028.78	1356.5

CC#N [acetonitrile]
[1]
Settings	mass density [kg/m3]	speed of sound [m/s]
–	776.389	1281.3

CC#N [acetonitrile] + O
[2]
Settings	mass density [kg/m3]	speed of sound [m/s]
m2 = 0	776.389	1281.3
m2 = 0.1197	776.819	1281.5
m2 = 0.1729	777.019	1282
m2 = 0.2244	777.174	1282.2
m2 = 0.2674	777.435	1282.4
m2 = 0.3192	777.518	1282.2
m2 = 0.4188	777.923	1282.6
m2 = 0.5198	778.218	1283
m2 = 0.621	778.584	1284
m2 = 0.7217	778.921	1284.3
m2 = 0.8212	779.276	1284.7
m2 = 0.9205	779.631	1285.5
m2 = 1.02	779.949	1286.5

CCCCO [butan-1-ol]
[1]
Settings	mass density [kg/m3]	speed of sound [m/s]
–	806.024	1241.6

CCCCO [butan-1-ol] + O
[2]
Settings	mass density [kg/m3]	speed of sound [m/s]
m2 = 0	806.024	1241.6
m2 = 0.1588	806.701	1242.9
m2 = 0.2034	806.906	1243.3
m2 = 0.2526	807.034	1243.2
m2 = 0.3019	807.215	1243.6
m2 = 0.3998	807.558	1244.5
m2 = 0.5007	807.906	1246.2
m2 = 0.6011	808.262	1247
m2 = 0.705	808.615	1248
m2 = 0.8032	808.946	1248.8
m2 = 0.9017	809.283	1249.7

CN(C)C=O [dimethylformamide]
[1]
Settings	mass density [kg/m3]	speed of sound [m/s]
–	944.076	1460.2

CN(C)C=O [dimethylformamide] + O
[2]
Settings	mass density [kg/m3]	speed of sound [m/s]
m2 = 0	944.076	1460.2
m2 = 0.08457	944.384	1461.1
m2 = 0.1304	944.54	1461.8
m2 = 0.1738	944.701	1462.4
m2 = 0.2315	944.826	1463.9
m2 = 0.2762	945.027	1464.1
m2 = 0.3215	945.143	1464.2
m2 = 0.4146	945.584	1465.5
m2 = 0.5189	945.835	1467.4
m2 = 0.6115	946.263	1468.1
m2 = 0.7123	946.49	1469.4
m2 = 0.81	946.853	1470.7
m2 = 0.9044	947.103	1472.3
m2 = 1.001	947.417	1473.3

CCO [ethanol]
[1]
Settings	mass density [kg/m3]	speed of sound [m/s]
–	785.207	1142.1

CCO [ethanol] + O
[2]
Settings	mass density [kg/m3]	speed of sound [m/s]
m2 = 0	785.207	1142.1
m2 = 0.214	786.407	1144.6
m2 = 0.2705	786.72	1145.9
m2 = 0.3199	786.998	1146.8
m2 = 0.3659	787.262	1148.6
m2 = 0.4543	787.753	1151
m2 = 0.5541	788.3	1153.2
m2 = 0.6437	788.782	1154.8
m2 = 0.743	789.321	1156.4
m2 = 0.8349	789.775	1157.7
m2 = 0.9264	790.279	1159.5
m2 = 1.019	790.734	1160.1

CO [methanol]
[1]
Settings	mass density [kg/m3]	speed of sound [m/s]
–	786.66	1103.8

CO [methanol] + O
[2]
Settings	mass density [kg/m3]	speed of sound [m/s]
m2 = 0	786.66	1103.8
m2 = 0.1566	787.454	1106
m2 = 0.2143	787.724	1106.2
m2 = 0.2641	788.016	1106.2
m2 = 0.3211	788.308	1107.2
m2 = 0.4121	788.789	1107.9
m2 = 0.5085	789.27	1109.8
m2 = 0.6159	789.834	1112.6
m2 = 0.7089	790.308	1113.4
m2 = 0.8074	790.823	1114.4
m2 = 0.9136	791.368	1117.1
m2 = 1.018	791.86	1118

CCCO [propan-1-ol]
[1]
Settings	mass density [kg/m3]	speed of sound [m/s]
–	799.683	1207

CCCO [propan-1-ol] + O
[2]
Settings	mass density [kg/m3]	speed of sound [m/s]
m2 = 0	799.683	1207
m2 = 0.1627	800.472	1209
m2 = 0.217	800.732	1209.9
m2 = 0.2635	800.961	1210.1
m2 = 0.3129	801.185	1211.5
m2 = 0.4209	801.664	1213
m2 = 0.5137	802.083	1213.4
m2 = 0.6196	802.528	1214.7
m2 = 0.7183	802.982	1215.8
m2 = 0.8205	803.412	1217.2
m2 = 0.9191	803.833	1218.1
m2 = 1.005	804.252	1219.3

C1CCOC1 [tetrahydrofuran]
[1]
Settings	mass density [kg/m3]	speed of sound [m/s]
–	882.056	1280.2

C1CCOC1 [tetrahydrofuran] + O
[2]
Settings	mass density [kg/m3]	speed of sound [m/s]
m2 = 0	882.056	1280.2
m2 = 0.1301	882.394	1281.2
m2 = 0.1845	882.536	1281.7
m2 = 0.2263	882.674	1282
m2 = 0.244	882.753	1282.4
m2 = 0.3258	882.981	1282.9
m2 = 0.4247	883.242	1283.2
m2 = 0.525	883.543	1283.9
m2 = 0.6245	884.032	1284.6
m2 = 0.7309	884.381	1285.1
m2 = 0.8254	884.726	1286
m2 = 0.9243	885.015	1287
m2 = 1.029	885.427	1288
